Test results taken from US20130072517A1 (Avanir Pharmaceuticals, Inc., priority 2002, published 2013).

Experiments:
[1] = assay type: in vivo
Source text: An adverse event was any unfavorable and unintended sign (including an abnormal laboratory finding, for example), symptom, or disease temporally associated with the use of a medicinal product, whether or not considered related to the medicinal product. Changes associated with normal growth and development not varying in frequency or magnitude from that ordinarily anticipated clinically are not adverse events (for example, onset of menstruation occurring at a physiologically appropriate time). Clinical adverse events were described by diagnosis and not by symptoms when possible (for example, cold or seasonal allergies, instead of “runny nose”).
The severity of adverse events was graded on a 3-point scale and reported in detail as indicated on the Case Report Form: mild—easily tolerated, causing minimal discomfort, and not interfering with normal everyday activities; moderate—sufficiently discomforting to interfere with normal everyday activities; and severe—incapacitating and/or preventing normal everyday activities.
Subjects were instructed to promptly report any adverse event. The serious adverse event was assessed for the following details: seriousness of event, start date, stop date, intensity, frequency, relationship to test drug, action taken regarding test drug, treatment required, and outcome to date. These details were recorded on the Case Report Form. Such preliminary reports were followed by detailed descriptions that included copies of hospital case reports, autopsy reports, and other documents when requested and applicable.
Blood and urine were collected at the screening visit and Day 29 for clinical chemistry, hematology, urinalysis, and pregnancy testing. In the event of an abnormal laboratory test value, the test was repeated within one week, and the subject was followed up until the value returned to the normal range and/or until an adequate explanation of the abnormality was found.
Values were obtained for systolic and diastolic blood pressure, heart rate, and respiration rate on the screening visit and all other study visits. All values outside the pre-defined ranges were flagged in the subject data listings. Electrocardiography (twelve lead) was used to obtain ventricular rate (VR), QT, Q-Tc intervals, […] (PR), and QRS duration. A blood sample (10 mL whole blood) was taken from each subject at the Screening Visit for CYP2D6 genotyping to determine which subjects were poor metabolizers of DM and which were extensive metabolizers. Blood samples were taken on Day 29 for the determination of concentrations of DM, DX, and Q in plasma. The relationship between the concentration of drug in plasma and changes in CNS-LS scores was determined, and the effect of the CYP2D6 genotype on this relationship was evaluated.

clinical = details: for Tmax / AUC(0-t) / Cmax: human, in vivo, mean; for Tmax: Tmax (plasma); for AUC(0-t): AUC (0-12) (plasma); for Cmax: Cmax (plasma)
Description: Descriptive statistics for each parameter, including mean, median, standard deviation, coefficient of variation, N, minimum, and maximum were calculated for all of the subjects by Day. In addition, descriptive statistics were presented by the subgroups: extensive metabolizer (EM) and poor metabolizer (PM).
The ANOVA model included the factors group (EM or PM), subject within group, day, and the interaction term day by group. The group effect was tested using the subject within group mean square, and all other main effects were tested using the residual error (error mean square). In addition, tests of the hypotheses Day 1=Day 4, Day 1=Day 8, and Day 4=Day 8 were performed.

[2] = Clinical Study #5: concentrations in plasma of DM, DX and Q and correlation with pain intensity; assay type: in vivo, human; details: final visit; for Concentration in plasma, Mean / Concentration in plasma, Median: extensive metabolizers
Description: Subjects visited the clinic every two weeks during the four-week duration of the study and were contacted by telephone during weeks without clinic visits. At each subsequent study visit or weekly phone call, the subjects were given the Pain Intensity Rating Scale and the Pain Relief Rating Scale and were queried regarding any adverse events that might have occurred since their previous visit. Subjects were administered the Peripheral Neuropathy Quality of Life (QOL) Instrument on Days 1 and 29 (or the final visit). Blood samples were taken at the visits on Day 15 and Day 29 to determine concentrations in plasma of DM, DX, and Q.

[3] = Day 1, All Subjects, 30 mg DM HBr/25 mg Q sulfate capsule every 12 hours
[4] = Day 1, EM, 30 mg DM HBr/25 mg Q sulfate capsule every 12 hours
[5] = Day 1, PM, 30 mg DM HBr/25 mg Q sulfate capsule every 12 hours
[6] = Day 4, All Subjects, 30 mg DM HBr/25 mg Q sulfate capsule every 12 hours
[7] = Day 4, EM, 30 mg DM HBr/25 mg Q sulfate capsule every 12 hours
[8] = Day 4, PM, 30 mg DM HBr/25 mg Q sulfate capsule every 12 hours
[9] = Day 8, All Subjects, 30 mg DM HBr/25 mg Q sulfate capsule every 12 hours
[10] = Day 8, EM, 30 mg DM HBr/25 mg Q sulfate capsule every 12 hours
[11] = Day 8, PM, 30 mg DM HBr/25 mg Q sulfate capsule every 12 hours

With `C=C[C@H]1C[N@@]2CC[C@H]1C[C@@H]2[C@@H](O)c1ccnc2ccc(OC)cc12` [Quinidine, quinidine] the Subjects with dizziness ([1]; 28 days, twice daily) was 2.7%, the Subjects with nausea ([1]; 28 days, twice daily) was 8.1% and the Subjects with somnolence ([1]; 28 days, twice daily) was 0%. The “Subjects who withdrew because of adverse events” value ([1]; human, in vivo, 29 days) was 8.1%, the “Subjects reporting serious adverse events” value ([1]; judged not related to the study drug) was “only other serious adverse event” and the Tmax (clinical) was 1.71 h.

With `CN1CC[C@@]23CCCC[C@@H]2[C@@H]1Cc1ccc(O)cc13` [Dextrorphan, dextrorphan] the “Concentration in plasma, Mean” value ([2]; DM/Q MTD 30 mg) was 70.7 ng/mL, the “Concentration in plasma, Median” value ([2]; DM/Q MTD 30 mg) was 94.6 ng/mL and the “Concentration in plasma, Mean” value ([2]; DM/Q MTD 60 mg) was 65.4 ng/mL. For the same compound, the “Concentration in plasma, Median” value ([2]; DM/Q MTD 60 mg) was 58.2 ng/mL, the “Concentration in plasma, Mean” value ([2]; DM/Q MTD 90 mg) was 88.4 ng/mL and the “Concentration in plasma, Median” value ([2]; DM/Q MTD 90 mg) was 88.4 ng/mL. For the same compound, the “Concentration in plasma, Mean” value ([2]; DM/Q MTD 120 mg) was 146.6 ng/mL, the “Concentration in plasma, Median” value ([2]; DM/Q MTD 120 mg) was 122.6 ng/mL and the “Concentration in plasma, Mean” value ([2]; Total, all MTDs) was 123.9 ng/mL. For the same compound, the “Concentration in plasma, Median” value ([2]; Total, all MTDs) was 102.6 ng/mL, the Concentration in plasma ([2]; poor metabolizer (MTD of 60 mg)) was 41.0 ng/mL and the AUC(0-t) (clinical; [3]) was 749 ng·h/mL. It also gave an AUC(0-t) (clinical; [4]) of 934 ng·h/mL, an AUC(0-t) (clinical; [5]) of 91 ng·h/mL and an AUC(0-t) (clinical; [6]) of 742 ng·h/mL. The AUC(0-t) (clinical; [7]) was 849 ng·h/mL, the AUC(0-t) (clinical; [8]) was 365 ng·h/mL and the AUC(0-t) (clinical; [9]) was 896 ng·h/mL. For the same compound, the AUC(0-t) (clinical; [10]) was 1000 ng·h/mL, the AUC(0-t) (clinical; [11]) was 530 ng·h/mL and the Cmax (clinical; [3]) was 99.5 ng/mL. It also gave a Cmax (clinical; [4]) of 125 ng/mL, a Cmax (clinical; [5]) of 10.8 ng/mL and a Cmax (clinical; [6]) of 69.9 ng/mL. For the same compound, the Cmax (clinical; [7]) was 79.3 ng/mL, the Cmax (clinical; [8]) was 37 ng/mL and the Cmax (clinical; [9]) was 108 ng/mL. For the same compound, the Cmax (clinical; [10]) was 124 ng/mL, the Cmax (clinical; [11]) was 51.5 ng/mL and the Tmax (clinical; [3]) was 3.78 h. The Tmax (clinical; [4]) was 4 h, the Tmax (clinical; [5]) was 3 h and the Tmax (clinical; [6]) was 2.17 h. It also gave a Tmax (clinical; [7]) of 2.21 h, a Tmax (clinical; [8]) of 2 h and a Tmax (clinical; [9]) of 32.7 h. The Tmax (clinical; [10]) was 41.2 h, the Tmax (clinical; [11]) was 2.99 h and the “Fold increase in AUC (0-12) from Day 1 to Day 8” value (clinical; poor metabolizers) was 4.8 fold.
